Reference: patent US20200270310A1, “MAFG AS A POTENTIAL THERAPEUTIC TARGET TO RESTORE CHEMOSENSITIVITY IN PLATINUM-RESISTANT CANCER CELLS” (FUNDACÓIN PARA LA INVESTIGACIÓN BIOMÉDICA DEL HOSPITAL …, priority 2017, published 2020)
Where “and” joins values, the source holds several entries; their conditions need not be identical. Equal values may be shown once.

Tests used:
H23R cells [1] = assay: ROS production after CDDP exposure, resistant cells; format: cell-based, human
Experimental: FIG. 2. Viability assays and Reactive Oxygenated Species detection after CDDP treatment in H23 cell lines. (A) Viability to CDDP in H23S (left) and H23R (right) at 24, 48 and 72 hours and 6 concentrations of CDDP measured by MTT assay. (B) Increment of ROS production in H23S (left) and H23R (right) after 24, 48 and 72 hours of CDDP treatment. $: 72h (vs Basal).
H23/A2780 cells were cultured in 96-well black plates at density of 10,000 cells/well. Cells were treated with 6 different doses of CDDP for 24, 48 and 72 h in RPMI containing 10% FBS. Then treatments were removed and cells were loaded with the fluorescent probe 2′,7′-dichlorodihydrofluorescein diacetate (H2DCFDA) (10 μM) for 45 minutes in RPMI medium (FBS free). Cells were washed twice with RPMI (10% FBS), and fluorescence was recorded in a Fluostar Optima, each hour, over 4 hours period. […] ROS production was calculated dividing the mean H2DCFDA fluorescence by the mean viability. […] All experiments included cells treated with RPMI alone (Basal), and one well without cells as fluorescence basal.
H23/A2780 cells were cultured in 96-well black plates at density of 10,000 cells/well. […] Cells were washed twice with RPMI (10% FBS), and fluorescence was recorded in a Fluostar Optima at 520 nm after excitation at 485 nm. […] ROS production was calculated dividing the mean H2DCFDA fluorescence by the mean viability. […]

A2780-R cells = assay: Viability to CDDP, resistant index; format: cell-based, human; conditions: versus parental A2780
Source text: (§1) Fifteen human cancer cell lines were purchased from ATCC (Manassas, Va.) or ECACC (Sigma-Aldrich, Spain) and cultured as recommended. The CDDP-resistant variants A2780R and OVCAR3R were selected after a final exposure to […] cisplatin, respectively (Farma Ferrer, Spain), as previously described for H23R and H460R variants The additional 11 human cell lines, PC-3, LNCAP, H727, HT29, A549, BT474, LoVo, IMIM-PC-2, SKOV3, SW780 and IMR90, were used for further validations. For viability assays cells were treated with increasing doses of CDDP. The epigenetic reactivation drugs 5Aza-2deoxycytidine (5Aza-dC) and trichostatin A (TSA) (Sigma-Aldrich, Spain) were used at […] and at 300nM respectively.

H460R cells = assay: Viability to CDDP, resistant index; format: cell-based, human; conditions: versus parental H460
Source text: as §1

OVCAR3-R cells = assay: Viability to CDDP, resistant index; format: cell-based, human; conditions: versus parental OVCAR3
Source text: as §1

H23R cells [2] = assay: Viability to CDDP, resistant index; format: cell-based, human; conditions: versus H23S
Source text: as §1

MAFG = assay: Determination of the MAFG amino acids with which the aptamer binds; conditions: aligned with peptides M4 and M5
Source text: FIG. 11. Amino acids of MAFG with which apMNK6F binds (see chA and chB). Interaction zones of apMNK6F aligned with peptides M4 and M5
Moreover, we determined the precise amino acids of MAFG with which apMNK6F binds (see chA and chB of FIG. 11). […] More precisely, the interaction occurs with amino acids 57ARG, 60LYS, 61ASN, 62ARG, 63GLY, 64TYR, 65ALA, 66ALA, 67SER, 68CYS, 69ARG, 70VAL, 71LYS, and 75GLN of the epitope of MAFG comprising amino acids 57 to 75 RTLKNRGYAASCRVKRVTQ (amino acids 57 to 75).

[3] = system: human MAFG peptides M1-M10; assay: ELONA of aptamers with 10 MAFG peptides; format: binding; conditions: digoxigenin aptamer 20 nM, 1 μg peptide, absorbance at 405 nm
Experimental: FIG. 9. Characterization of the interaction of aptamers with MAFG. ELONAS in which the Aptamers bound to digoxigenin (20 nM) were incubated 1 hour at 37° C. with 10 peptides (1 μg) previously attached to the plate overnight. After incubating 1 hour with antidigoxigenin-Peroxidase 1/1000, ABTS was added and at 10 minutes the absorbance at 405 nm was measured.
In order to identify compounds of the invention and starting from the amino acidic sequence of human MAFG (NCBI Reference Sequence: NP_116100.2) of: SEQ ID NO 2: […]); we designed the following 10 peptides (please refer to table below):
Peptide M4, amino acids 49-68 corresponds to the basic MAFG region containing the tyrosine residue (Tyr64), as well as the arginine residue (Arg57) required for binding to the DNA, in addition to a nuclear localization signal.

[4] = molecular target: T1, MAFG in tumor samples of patients with lung cancer (Homo sapiens, UniProt O15525); assay: Aptahistochemistry in NSCLC tumor samples; conditions: 20 tumor samples classified by MAFG mRNA levels
T1 construct: from tissue; host or cells: Formalin-fixed paraffin-embedded NSCLC tumour sections
T1 sequence (O15525 whole entry): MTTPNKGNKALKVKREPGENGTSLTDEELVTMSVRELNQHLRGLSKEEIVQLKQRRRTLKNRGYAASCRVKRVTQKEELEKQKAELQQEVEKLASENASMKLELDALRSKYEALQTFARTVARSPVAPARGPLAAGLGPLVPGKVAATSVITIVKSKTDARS
Experimental: The formalin-fixed and paraffin-embedded tissue sections of patients with lung cancer were baked 15 minutes at 60° C. Deparaffinization was performed by two washes of xylene for 10 minutes each. Tissue sections were rehydrated by a sequential wash in 100%, 90%, 80%, 70% ethanol and distilled water for 5 minutes each. Antigen retrieval was achieved by heat treatment in a pressure cooker for 2 minutes in 10 mM citrate buffer (pH 6.5). Endogenous peroxidase activity of tissues was blocked with 0.3% […]. The primary binding reaction was performed with 10 pmol/ml of digoxigenin-conjugated aptamers overnight at room temperature. The secondary binding reaction was performed with anti-digoxigenin conjugated with POD (Roche; 1/200 dilution in TBS) for 45 minutes. Staining was done using the Immunoperoxidase DAB kit (Master Diagnostica), according to the manufacturer's instructions. The sections were counterstained with hematoxylin.
We then took advantage of the aptacytochemistry to perform an aptamer-based histochemistry in 20 tumor samples from our cohort of patients with known mRNA levels of MAFG. […] To determine the correlation between the aptahistochemistry and the mRNA levels of MAFG, we calculated the percentage of cells with positive staining from the total number of cells computed at four different areas randomly selected for each sample.

Row | Molecule | ROS production versus basal untreated cells (H23R cells [1]; 3.00 μg/ml CDDP) | ROS after treatment with the drug (H23R cells [1]; Example 1) | Resistant-Index (RI) to CDDP (A2780-R cells) | Resistant-Index (RI) to CDDP (H460R cells) | Resistant-Index (RI) to CDDP (OVCAR3-R cells) | Resistant-Index (RI) to CDDP (H23R cells [2]) | interaction zone of the aptamer on MAFG (MAFG) | interaction of aptamers with the 10 MAFG peptides by ELONA [3] | percentage of positive cells in samples with higher MAFG levels [4]
1 | [NH2][Pt]([NH2])([Cl])[Cl] [CDDP, Cisplatin] | 159% | no changes | 3.00 | 2.50 | 2.96 | 3.35 and > 3 | – | – | –
2 | GCGGATGAAGACTGGTGTCGATGCATGTGTAGTGCATTTCGAGCCGTTCTATTGGTGTGCCCTAAATACGAGCAAC (nucleic acid, chemistry not given here, DNA aptamer selected against the MAFG protein by SELEX) GCGGATGAAGACTGGTGTCGATGCATGTGTAGTGCATTTCGAGCCGTTCTATTGGTGTGCCCTAAATACGAGCAAC | – | – | – | – | – | – | interaction occurs mainly with peptide M4 | recognized peptide M4 | significant increment in the percentage of positive cells
